Experimental data published in patent US20120202818A1, “UREIDOPHENYL SUBSTITUTED TRIAZINE DERIVATIVES AND THEIR THERAPEUTICAL APPLICATIONS” (CALIFORNIA CAPITAL EQUITY, LLC, priority 2009, published 2012).

Key:
Format in all cases: biochemical
Aurora-A kinase = target: T1, Aurora-A kinase (Homo sapiens, UniProt O14965); experiment: Aurora-A kinase assay (KinaseProfiler / Kinase HotSpot); details: compound at 1 μM; read-out: % Inhibition @1 μM Auroro-A
T1 construct: purchased Millipore (KinaseProfiler service) and/or Reaction Biology Corp. (Kinase HotSpot service)
T1 sequence (O14965 1-403): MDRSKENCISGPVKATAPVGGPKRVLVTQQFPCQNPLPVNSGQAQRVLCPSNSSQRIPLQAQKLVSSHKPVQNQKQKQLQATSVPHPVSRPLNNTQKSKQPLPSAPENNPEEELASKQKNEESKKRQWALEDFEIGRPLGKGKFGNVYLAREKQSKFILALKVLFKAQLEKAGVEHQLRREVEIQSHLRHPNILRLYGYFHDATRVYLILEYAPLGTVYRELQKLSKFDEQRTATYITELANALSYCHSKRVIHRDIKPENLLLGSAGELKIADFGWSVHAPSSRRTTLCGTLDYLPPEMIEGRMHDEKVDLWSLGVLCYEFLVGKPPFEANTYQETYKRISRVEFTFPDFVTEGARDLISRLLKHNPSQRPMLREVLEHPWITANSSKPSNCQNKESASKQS
Description: (§1) This example illustrated c-Src kinase, Aurora-A kinase, Flt3 kinase, Ret kinase and TrkA Kinase Assays of selected Compounds from this invention (referred to Daniele Fancelli et al, J. Med. Chem., 2006, 49 (24), pp 7247-7251). The KinaseProfiler™ Service Assay Protocols (Millipore) were used to test the kinase inhibiting activity of novel compounds from this invention. To do this, the buffer composition was as: 20 mM MOPS, 1 mM EDTA, 0.01% Brij-35, 5% Glycerol, 0.1% β-mercaptoethanol, 1 mg/mL BSA. Test compounds were initially dissolved in DMSO at the desired concentration, then serially diluted to the kinase assay buffer. In a final reaction volume of 25 μL, Aurora-A(h) (5-10 mU) is incubated with 8 mM MOPS pH 7.0, 0.2 mM EDTA, 200 μM LRRASLG (Kemptide), 10 mM MgAcetate and [γ^33P-ATP]. The reaction was initiated by the addition of the MgATP mix. After incubation for 40 minute at room temperature, the reaction was stopped by addition of 5 μL of a 3% phosphoric acid solution. 10 μL of the reaction was then spotted onto a P30 filtermat and washed three times for 5 minutes in 50 mM phosphoric acid and once in methanol prior to drying and scintillation counting. Wells containing substrate but no kinase and wells containing a phosphopeptide control were used to set 0% and 100% phosphorylation value, respectively.
(§2) Also Kinase Hotspot ^SM kinase assay was used to test the compounds for IC50 or % inhibitions (Reaction Biology Corp.). Inhibitor IC50 values were determined by titration of compound at the optimal kinase concentration (Kinase EC50).

Ret kinase = target: T2, Ret kinase (Homo sapiens, UniProt P07949); experiment: Ret kinase assay (KinaseProfiler / Kinase HotSpot); details: compound at 1 μM
T2 construct: purchased Millipore (KinaseProfiler service) and/or Reaction Biology Corp. (Kinase HotSpot service)
Description: as §1, §2

Flt3 kinase = target: T3, Flt3 kinase (Homo sapiens, UniProt P36888); experiment: Flt3 kinase assay (KinaseProfiler / Kinase HotSpot); details: compound at 1 μM
T3 construct: purchased Millipore (KinaseProfiler service) and/or Reaction Biology Corp. (Kinase HotSpot service)
T3 sequence (P36888 27-993): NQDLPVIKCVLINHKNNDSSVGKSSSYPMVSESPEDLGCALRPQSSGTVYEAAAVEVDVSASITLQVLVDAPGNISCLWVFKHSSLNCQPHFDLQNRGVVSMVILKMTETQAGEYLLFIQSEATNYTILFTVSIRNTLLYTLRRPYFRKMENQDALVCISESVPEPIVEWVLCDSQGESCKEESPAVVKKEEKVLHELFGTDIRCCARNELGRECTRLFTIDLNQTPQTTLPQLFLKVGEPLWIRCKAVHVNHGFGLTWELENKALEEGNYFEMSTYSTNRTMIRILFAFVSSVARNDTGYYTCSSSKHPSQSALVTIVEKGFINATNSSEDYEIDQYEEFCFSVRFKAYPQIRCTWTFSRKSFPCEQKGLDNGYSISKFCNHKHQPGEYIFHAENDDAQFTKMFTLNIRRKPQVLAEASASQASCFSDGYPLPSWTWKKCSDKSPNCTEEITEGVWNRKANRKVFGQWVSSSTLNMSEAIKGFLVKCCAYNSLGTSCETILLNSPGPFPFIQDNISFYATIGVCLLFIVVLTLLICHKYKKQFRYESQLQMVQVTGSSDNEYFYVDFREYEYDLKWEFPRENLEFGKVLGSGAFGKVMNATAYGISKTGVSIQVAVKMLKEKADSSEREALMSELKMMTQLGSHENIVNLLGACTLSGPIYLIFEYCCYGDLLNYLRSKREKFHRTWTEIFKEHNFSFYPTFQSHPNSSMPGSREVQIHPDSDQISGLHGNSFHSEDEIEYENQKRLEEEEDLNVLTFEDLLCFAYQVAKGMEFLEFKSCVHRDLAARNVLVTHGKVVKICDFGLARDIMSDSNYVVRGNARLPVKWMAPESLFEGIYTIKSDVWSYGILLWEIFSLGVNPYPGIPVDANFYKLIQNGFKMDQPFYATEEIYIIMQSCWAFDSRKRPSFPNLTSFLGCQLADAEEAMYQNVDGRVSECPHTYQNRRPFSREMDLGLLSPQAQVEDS
Description: as §1, §2

c-Src kinase = target: T4, c-Src kinase (Homo sapiens, UniProt P12931); experiment: c-Src kinase assay (KinaseProfiler / Kinase HotSpot); details: compound at 1 μM; read-out: % Inhibition @1 μM cSrc
T4 construct: purchased Millipore (KinaseProfiler service) and/or Reaction Biology Corp. (Kinase HotSpot service)
Description: as §1, §2

TrkA Kinase = target: T5, TrkA Kinase (Homo sapiens, UniProt P04629); experiment: TrkA kinase assay (KinaseProfiler / Kinase HotSpot); details: compound at 1 μM
T5 construct: purchased Millipore (KinaseProfiler service) and/or Reaction Biology Corp. (Kinase HotSpot service)
Description: as §1, §2

T2 sequence (P07949 29-1114): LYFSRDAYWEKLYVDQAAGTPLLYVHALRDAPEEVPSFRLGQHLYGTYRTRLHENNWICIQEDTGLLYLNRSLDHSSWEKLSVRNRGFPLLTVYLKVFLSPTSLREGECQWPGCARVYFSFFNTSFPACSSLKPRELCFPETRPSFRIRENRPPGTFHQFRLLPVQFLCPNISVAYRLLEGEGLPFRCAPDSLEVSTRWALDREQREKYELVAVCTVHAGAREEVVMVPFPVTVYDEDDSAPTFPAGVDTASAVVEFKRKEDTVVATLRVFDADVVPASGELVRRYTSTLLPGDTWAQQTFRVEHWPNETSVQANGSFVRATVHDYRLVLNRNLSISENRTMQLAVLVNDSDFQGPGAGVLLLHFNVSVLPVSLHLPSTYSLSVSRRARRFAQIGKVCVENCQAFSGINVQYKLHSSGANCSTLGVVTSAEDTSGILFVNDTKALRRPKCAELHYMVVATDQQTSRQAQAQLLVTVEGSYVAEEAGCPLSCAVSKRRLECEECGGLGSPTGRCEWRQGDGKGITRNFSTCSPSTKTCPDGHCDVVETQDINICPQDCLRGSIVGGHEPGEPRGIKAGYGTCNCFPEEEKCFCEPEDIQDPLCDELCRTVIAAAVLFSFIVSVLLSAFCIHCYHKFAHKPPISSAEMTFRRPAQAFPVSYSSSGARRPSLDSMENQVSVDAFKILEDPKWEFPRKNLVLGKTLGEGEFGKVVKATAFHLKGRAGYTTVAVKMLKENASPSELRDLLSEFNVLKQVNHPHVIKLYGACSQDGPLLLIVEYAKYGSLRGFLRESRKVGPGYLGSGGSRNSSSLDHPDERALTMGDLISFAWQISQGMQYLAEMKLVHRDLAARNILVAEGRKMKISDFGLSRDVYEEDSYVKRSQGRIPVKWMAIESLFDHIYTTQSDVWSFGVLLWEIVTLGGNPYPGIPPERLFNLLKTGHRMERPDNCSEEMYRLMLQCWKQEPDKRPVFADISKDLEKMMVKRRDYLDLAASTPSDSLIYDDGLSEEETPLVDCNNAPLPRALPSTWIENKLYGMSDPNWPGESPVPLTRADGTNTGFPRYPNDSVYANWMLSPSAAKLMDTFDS
T4 sequence (P12931 whole entry): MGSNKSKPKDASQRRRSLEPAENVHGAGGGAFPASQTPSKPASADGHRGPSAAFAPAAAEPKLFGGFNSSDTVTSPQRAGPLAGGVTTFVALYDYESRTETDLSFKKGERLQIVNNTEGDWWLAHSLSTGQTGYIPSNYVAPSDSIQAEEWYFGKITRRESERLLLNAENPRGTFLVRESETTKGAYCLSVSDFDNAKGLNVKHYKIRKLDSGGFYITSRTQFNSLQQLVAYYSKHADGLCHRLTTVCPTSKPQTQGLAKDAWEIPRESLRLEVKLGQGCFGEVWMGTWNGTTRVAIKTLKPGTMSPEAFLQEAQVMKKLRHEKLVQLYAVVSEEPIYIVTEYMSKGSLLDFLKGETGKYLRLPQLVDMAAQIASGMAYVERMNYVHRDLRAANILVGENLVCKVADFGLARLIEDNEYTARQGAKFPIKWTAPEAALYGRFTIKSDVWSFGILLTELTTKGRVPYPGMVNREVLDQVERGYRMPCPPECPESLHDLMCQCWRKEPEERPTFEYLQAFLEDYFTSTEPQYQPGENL
T5 sequence (P04629 33-796): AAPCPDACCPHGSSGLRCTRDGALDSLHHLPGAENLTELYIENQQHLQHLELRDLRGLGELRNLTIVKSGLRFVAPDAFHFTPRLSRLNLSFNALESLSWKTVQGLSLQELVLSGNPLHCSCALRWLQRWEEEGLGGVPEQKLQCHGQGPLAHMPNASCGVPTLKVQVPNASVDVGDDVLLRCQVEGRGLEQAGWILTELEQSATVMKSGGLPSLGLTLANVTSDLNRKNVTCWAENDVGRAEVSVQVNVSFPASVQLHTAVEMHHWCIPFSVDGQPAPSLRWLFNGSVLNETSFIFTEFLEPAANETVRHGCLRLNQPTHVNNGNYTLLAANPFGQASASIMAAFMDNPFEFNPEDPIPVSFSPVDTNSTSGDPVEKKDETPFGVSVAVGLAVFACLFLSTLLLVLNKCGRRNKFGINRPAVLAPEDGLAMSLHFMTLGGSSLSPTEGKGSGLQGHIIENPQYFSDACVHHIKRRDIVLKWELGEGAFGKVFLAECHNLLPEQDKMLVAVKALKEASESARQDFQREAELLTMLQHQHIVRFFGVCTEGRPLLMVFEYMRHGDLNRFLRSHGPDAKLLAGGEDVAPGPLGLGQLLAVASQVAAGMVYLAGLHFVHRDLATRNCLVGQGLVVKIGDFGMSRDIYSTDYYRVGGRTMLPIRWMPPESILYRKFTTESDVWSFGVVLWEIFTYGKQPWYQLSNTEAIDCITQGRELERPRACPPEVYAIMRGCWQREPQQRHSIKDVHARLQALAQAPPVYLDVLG

| SMILES | inhibition at 1 µM (Aurora-A kinase) [%] | inhibition at 1 µM (Ret kinase) [%] | inhibition at 1 µM (Flt3 kinase) [%] | inhibition at 1 µM (c-Src kinase) [%] | inhibition at 1 µM (TrkA Kinase) [%] |
| --- | --- | --- | --- | --- | --- |
| Cc1cnc(Nc2nc(Sc3ccc(N)cc3)nc(N3CCN(C)CC3)n2)s1 [Example 2] | 50 to 90 | 50 to 90 | > 90 | 50 to 90 | 50 to 90 |
| Cc1cnc(Nc2nc(Sc3cccc(N)c3)nc(N3CCN(C)CC3)n2)s1 [Example 3] | 50 to 90 | < 50 | 50 to 90 | < 50 | 50 to 90 |
| Cc1cnc(Nc2nc(Sc3ccc(NC(=O)Nc4ccccc4)cc3)nc(N3CCN(C)CC3)n2)s1 [Example 4] | > 90 | 50 to 90 | 50 to 90 | < 50 | 50 to 90 |
| CCc1nc(Nc2ccc(NC(=O)Nc3ccc(C(F)(F)F)cc3)cc2)nc(Nc2cc(C)[nH]n2)n1 [Example 12] | > 90 | 50 to 90 | < 50 | < 50 | < 50 |
| CCNC(=O)Nc1ccc(Nc2nc(CC)nc(Nc3cc(C)n(C(=O)NCC)n3)n2)cc1 [Example 13] | < 50 | < 50 | < 50 | < 50 | < 50 |
| CCc1nc(Nc2ccc(NC(=O)NC(C)C)cc2)nc(Nc2cc(C)n(C(=O)NC(C)C)n2)n1 [Example 14] | 50 to 90 | < 50 | < 50 | < 50 | < 50 |
| CCc1nc(Nc2ccc(NC(=O)Nc3ccccc3)cc2)nc(Nc2ncc(C)s2)n1 [Example 15] | < 50 | < 50 | < 50 | < 50 | < 50 |
| CCc1nc(Nc2ccc(NC(=O)NC(C)C)cc2)nc(Nc2cc(C)[nH]n2)n1 [Example 21] | < 50 | < 50 | < 50 | < 50 | < 50 |
| CCNC(=O)Nc1ccc(Nc2nc(CC)nc(Nc3cc(C)[nH]n3)n2)cc1 [Example 22] | < 50 | < 50 | < 50 | < 50 | < 50 |
| CCc1nc(Nc2ccc(NC(=O)Nc3ccccc3C)cc2)nc(Nc2cc(C)[nH]n2)n1 [Example 23] | > 90 | < 50 | < 50 | < 50 | < 50 |
| CCc1nc(Nc2ccc(NC(=O)Nc3ccc(OC)cc3)cc2)nc(Nc2cc(C)[nH]n2)n1 [Example 24] | 50 to 90 | 50 to 90 | 50 to 90 | < 50 | < 50 |
| CCc1nc(Nc2ccc(NC(=O)NCc3ccccc3)cc2)nc(Nc2cc(C)[nH]n2)n1 [Example 25] | 50 to 90 | > 90 | < 50 | < 50 | < 50 |
